Source: ChEMBL document CHEMBL1136589, “Antineoplastic agents 390. Isolation and structure of phakellistatin 12 from a Chuuk archipelago marine sponge” (2003)
Values after ≈ are worked out from the molar mass of the structure shown. Where a SMILES comes first, the peptide text is derived from it.

System: P388
Experiment: Inhibitory activity against P388 lymphocytic leukemia cells
Format: functional
Settings: Mus musculus, read-out: ED50 (the source's name)

How did the EC50 turn out when `CC[C@H](C)[C@@H]1NC(=O)[C@@H]2CCCN2C(=O)[C@@H]2CCCN2C(=O)[C@H]([C@@H](C)CC)NC(=O)[C@H](Cc2ccc(O)cc2)NC(=O)[C@@H]2CCCN2C(=O)[C@@H]2CCCN2C(=O)[C@H](CC(C)C)NC(=O)[C@H]([C@@H](C)O)NC(=O)[C@H](Cc2ccccc2)NC1=O` [PHAKELLISTATIN 12] (cyclo(FTLPPYIPPI)) was run?
The EC50 was 2.8 µg/mL (≈ 2.46 µM).
